Where two headings read alike, the source gives them in different places.
What was measured:
VIM-2 = molecular target: T1, VIM-2 (Escherichia coli, UniProt Q5U7L7); assay: Inhibition of IPM hydrolysis by purified VIM-2, Ki by Lineweaver-Burk plots; assay type: biochemical; conditions: IPM as substrate, competitive model, mean of three replicates; read-out: Inhibition constant Ki VIM-2
T1 construct: made in house
Description: (§1) MBL (10 nM) was mixed with the inhibitors and incubated for 5 min at 30°C. IPM was added to reach a concentration of 150 μM, and the velocity of IPM hydrolysis was monitored at 298 nm. The assay was performed at 30°C using 10 mM HEPES (pH 7.5) buffer containing 200 mM NaCl and 50 μg/ml bovine serum albumin (BSA) for IMP-1, NDM-1, VIM-2, and SMB-1. For SFH-1 and L1, another 10 mM HEPES (pH 7.5) buffer containing 200 mM NaCl, 20 μM ZnSO4, and 50 μg/ml BSA was used.
Initial velocities (vo) were measured after varying the concentrations of IPM and inhibitors, and inverse velocities (1/vo) were plotted against inverse IPM concentrations […]. Lineweaver-Burk plots were constructed to obtain the inhibition constant (Ki) with the competitive inhibition model using the SigmaPlot 13 suite (Hulinks).

SMB-1 = assay: In vitro inhibition assay, IPM hydrolysis by SMB-1; assay type: biochemical; conditions: even in the presence of 100 μM SFC
Description: as §1

TLA-3 = assay: Serine β-lactamase inhibition, nitrocefin hydrolysis by TLA-3; assay type: biochemical; conditions: nitrocefin 100 μM
Description: (§2) The serine–β-lactamases (1 nM) TLA-3, CMY-2, and OXA-48 were mixed with SFC in 100 mM phosphate buffer (pH 7.0) and incubated for 5 min at 30°C. Nitrocefin was added to reach a concentration of 100 μM, and the velocity of nitrocefin hydrolysis was monitored at 482 nm. Avibactam (MedKoo Bioscience, Morrisville, NC) was used as an inhibitor for serine–β-lactamases. The inhibitory effect of SFC against ACE was evaluated using ACE Kit-WST (Dojindo Laboratories, Kumamoto, Japan). The residual ACE activity was calculated as described in the manufacturer’s protocol as follows: [1 − (Acontrol − Asample)/(Acontrol − Abackground)] × 100. EDTA solution (Nippon Gene, Tokyo, Japan) was used as an ACE inhibitor.

[1] = molecular target: T2, angiotensin-converting enzyme (ACE) (Homo sapiens, UniProt P12821); assay: ACE inhibition (ACE Kit-WST); assay type: biochemical; conditions: human metalloenzyme
T2 construct: purchased Dojindo Laboratories ACE Kit-WST
T2 sequence (P12821 30-1306): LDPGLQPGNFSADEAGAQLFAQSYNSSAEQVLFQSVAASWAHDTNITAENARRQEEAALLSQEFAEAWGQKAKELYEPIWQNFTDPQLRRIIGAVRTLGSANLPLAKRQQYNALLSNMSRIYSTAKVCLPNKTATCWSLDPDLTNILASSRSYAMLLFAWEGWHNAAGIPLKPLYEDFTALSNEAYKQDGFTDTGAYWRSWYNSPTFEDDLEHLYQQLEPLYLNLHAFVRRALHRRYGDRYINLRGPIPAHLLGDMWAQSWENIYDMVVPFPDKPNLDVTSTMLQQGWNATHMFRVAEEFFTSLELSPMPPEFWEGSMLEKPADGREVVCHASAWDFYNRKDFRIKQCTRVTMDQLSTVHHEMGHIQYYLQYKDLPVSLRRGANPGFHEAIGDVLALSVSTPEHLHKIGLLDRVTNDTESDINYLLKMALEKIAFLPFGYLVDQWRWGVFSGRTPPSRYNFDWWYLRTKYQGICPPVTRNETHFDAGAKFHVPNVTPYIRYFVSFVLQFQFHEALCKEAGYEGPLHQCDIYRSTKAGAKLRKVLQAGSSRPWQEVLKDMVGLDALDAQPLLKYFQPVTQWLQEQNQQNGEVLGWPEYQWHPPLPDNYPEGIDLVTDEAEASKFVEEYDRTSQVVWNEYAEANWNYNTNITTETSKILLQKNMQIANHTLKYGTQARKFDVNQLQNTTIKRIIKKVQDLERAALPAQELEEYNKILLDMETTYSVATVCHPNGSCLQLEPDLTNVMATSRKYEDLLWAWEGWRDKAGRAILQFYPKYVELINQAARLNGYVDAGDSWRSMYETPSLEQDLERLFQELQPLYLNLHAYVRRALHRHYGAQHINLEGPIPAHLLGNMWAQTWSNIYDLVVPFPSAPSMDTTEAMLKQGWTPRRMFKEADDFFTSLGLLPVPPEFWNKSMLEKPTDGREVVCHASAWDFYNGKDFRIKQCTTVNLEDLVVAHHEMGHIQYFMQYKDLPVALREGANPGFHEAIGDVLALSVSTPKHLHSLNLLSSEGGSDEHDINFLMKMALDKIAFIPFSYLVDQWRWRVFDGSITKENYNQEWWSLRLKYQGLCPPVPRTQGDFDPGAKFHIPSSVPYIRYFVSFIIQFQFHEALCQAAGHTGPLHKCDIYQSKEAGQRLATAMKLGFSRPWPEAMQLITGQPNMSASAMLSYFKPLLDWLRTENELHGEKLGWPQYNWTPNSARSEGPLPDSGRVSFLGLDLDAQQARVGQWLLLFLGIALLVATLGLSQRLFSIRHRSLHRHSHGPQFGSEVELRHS
Description: as §2

[2] = test system: E. coli BL21(DE3)/pET-DIM-1; assay: Susceptibility testing, DIM-1-producing E. coli; assay type: cell-based; conditions: Escherichia coli
Description: (§3) MICs were determined via the microdilution method according to the CLSI guidelines ([38]). In brief, 5 × 10^4 bacterial cells were inoculated in 100 μl of cation-adjusted Mueller-Hinton broth (Becton, Dickinson and Company, Franklin Lakes, NJ) containing the β-lactams and appropriately diluted inhibitors. The final concentration of DMSO was maintained at 2% in the assays. The tested plates were then incubated at 35°C for 16 to 20 h. The MIC value was determined as the lowest concentration of tested β-lactams where no bacterial growth was visibly observed. The optical density at 600 nm (OD600) value was measured using a plate reader for drawing the heat maps. The FIC index value was calculated using the following equation: FIC index=MIC of β-lactam with inhibitor/MIC of β-lactam alone+MIC of inhibitor with β-lactam/MIC of inhibitor alone

[3] = test system: P. aeruginosa PAO1/pME-IMP-1; assay: Susceptibility testing, IMP-1-producing P. aeruginosa PAO1; assay type: cell-based; conditions: Pseudomonas aeruginosa
Description: as §3

[4] = test system: P. aeruginosa PAO1/pME-NDM-1; assay: Susceptibility testing, NDM-1-producing P. aeruginosa PAO1; assay type: cell-based; conditions: Pseudomonas aeruginosa
Description: as §3

[5] = test system: P. aeruginosa PAO1/pME-VIM-2; assay: Susceptibility testing, VIM-2-producing P. aeruginosa PAO1; assay type: cell-based; conditions: Pseudomonas aeruginosa
Description: as §3

[6] = test system: Pseudomonas aeruginosa clinical isolates; assay: Susceptibility testing, 17 P. aeruginosa clinical isolates; assay type: cell-based
Description: as §3

[7] = test system: IMP-1-producing E. coli NUBL-24; assay: Time-kill assay; assay type: cell-based, Escherichia coli; conditions: 10 μg/ml SFC added to 1 μg/ml MPM, 6 h
Description: The initial density of E. coli NUBL-24 (blaIMP-1) (MPM MIC, 8 μg/ml) was adjusted to approximately 5 × 10^6 CFU/ml. Either MPM (1 μg/ml) alone or SFC (10 μg/ml) alone or a combination of the two was added to the bacterial solution, and then incubation was performed at 37°C. LB broth containing only bacteria was used as a control. At 0, 2, 4, 6, and 24 h after adding the agents, an aliquot of bacterial culture was removed, diluted, and spotted on LB agar plates to count the viable bacterial cells. The detection limit was set at 200 CFU/ml.

[8] = test system: Salmonella enterica serovar Typhimurium TA98 and TA100, E. coli WP2uvrA; assay: Ames test (reverse mutation assay)
Description: Bacterial strains of Salmonella enterica serovar Typhimurium TA98 and TA100 as well as E. coli WP2uvrA were analyzed using the reverse mutation assay, which was performed by UBE Scientific Analysis Laboratory (Tokyo, Japan).

[9] = test system: IMP-1-producing E. coli NUBL-24; assay: Mouse infection model, E. coli NUBL-24, survival; assay type: in vivo, mice
Description: All experiments were approved by the Nagoya University Animal Ethics Committee, and all experiments were performed in a manner that minimized animal suffering. Male CD1 mice (4 weeks old; 20 to 25 g body weight) were purchased from Charles River Laboratories Japan (Yokohama, Japan). E. coli NUBL-24 (blaIMP-1) and K. pneumoniae MS5674 (blaNDM-1 and blaVIM-1) strains were inoculated on LB agar plates and grown for 18 h at 37°C. Bacteria were then scraped from the plates, and their concentration was adjusted to 5 × 10^6 to 1 × 10^7 CFU in saline solution containing 5% mucin; this solution was then i.p. injected into the mice. At 1 and 3 h after infection, saline solution, MPM, inhibitors, and a combination of MPM and inhibitor were i.p. injected. Mice were monitored for 7 days to formulate survival curves, after which they were euthanized by CO2 asphyxiation.

E. coli = assay: Growth inhibition by inhibitor alone; assay type: cell-based, Escherichia coli; conditions: at least at 128 μg/ml
Description: as §3

[10] = PAO1, read-out: MIC of MPM + inhibitor (10 μg/ml)
[11] = PAO1, read-out: MIC of MPM + inhibitor (50 μg/ml)

SMILES: Cc1oc(C)c(S(N)(=O)=O)c1C(=O)O [SFC, 2,5-dimethyl-4-sulfamoylfuran-3-carboxylic acid]
- Ki (VIM-2): 2810 nM
- Inhibition of IPM hydrolyzing activity of SMB-1 (SMB-1): did not inhibit
- Inhibitory effect against TLA-3 (class A) (TLA-3): nonexistent or insufficient
- Inhibitory effect on ACE [1]: no inhibitory effect
- MIC ([2]; read-out: MIC of MPM + inhibitor (8 μg/ml)): 2 µg/mL
- MIC ([2]; read-out: MIC of MPM + inhibitor (32 μg/ml)): 2 µg/mL
- MIC [3, 10]: 32 µg/mL
- MIC [3, 11]: 16 µg/mL
- MIC [4, 10]: 4 µg/mL
- MIC [4, 11]: 4 µg/mL
- MIC [5, 10]: 32 µg/mL
- MIC [5, 11]: 16 µg/mL
- Drop of MPM MIC50 ([6]; 10 μg/ml SFC): 2 fold
- Drop of MPM MIC50 ([6]; 50 μg/ml SFC): 8 fold
- Reduction of bacterial population [7]: more than 1,000 fold
- Ames test, mutagenicity [8]: negative
- Mice rescued from death at the endpoint ([9]; MPM (0.2 mg/kg)-SFC (100 mg/kg) combination therapy, i.p., 7 days following infection): 90%
- Rescue of infected mice by monotherapy ([9]; SFC 100 mg/kg or MPM 0.2 mg/kg i.p. at 1 and 3 h after infection, within 48 h): failed to rescue mice
- Growth inhibition by SFC alone (E. coli): did not show growth inhibition
